# Assays:
# [1] = test system: prostate cancer C4-2B cells; assay: Cell viability (Cell-Titer GLO), 4 days, prostate cancer cells; format: cell-based, human
# Method: The “No.” label for each compound corresponds to the “Structure No.” in Table 2 (e.g., “No. 36”=“Structure No. 36” in Table 2). Experiments were independently performed three times.
# (§1) For cell viability, cells were seeded in 96-well plates at 1500-2500 cells per well (optimum density for growth, depending on the specific cell line) in a total volume of 100 μl media. Serially diluted compounds in 100 μl of media were added to the cells 12 hours later. After 4 days of incubation, Cell-Titer GLO reagents (Promega) were added and luminescence was measured on GLOMAX microplate luminometer (Promega), according to the manufacturer's instructions. All experimental points were set up as sextuplicate as biological replication and the entire experiments were repeated three times. The data are presented as percentage of viable cells with vehicle treated cells set as 100. The estimated in vitro IC50 values were calculated using GraphPad Prism 6 software.
# [2] = test system: HCC70 cells; assay: Cell viability (CellTiter-GLO), 4 days, TNBC cells; format: cell-based, human
# Method: (§2) The “No.” label for each compound corresponds to the “Structure No.” in Table 2 (e.g., “No. 36”=“Structure No. 36” in Table 2). The cell viability curves were measured by CellTiter-GLO.
# as §1, with “growth)” for “growth, depending on the specific cell line)”
# [3] = test system: MDA-MB468 cells; assay: Cell viability (CellTiter-GLO), 4 days, TNBC cells; format: cell-based, human
# Method: as §2
# as §1, with “growth)” for “growth, depending on the specific cell line)”
# [4] = test system: gastric cancer KATO III cells; assay: Cell viability (Cell-Titer GLO), 4 days, gastric cancer cells; format: cell-based, human
# Method: Experiments were independently performed three times.
# as §1, with “100.” for “100. The estimated in vitro IC50 values were calculated using GraphPad Prism 6 software.”
# [5] = test system: SUM159 orthotopic xenograft tumors; assay: TNBC SUM159 orthotopic xenograft tumor growth in SCID mice; format: in vivo, mouse; details: 5 mg/kg, i.p., 5 times per week, 45 days
# Method: Orthotopic xenograft tumor models and chemical compound treatments: Four-week-old female SCID C.B17 mice (for TNBC SUM159 cell lines) were purchased from Harlan Inc. For establishing tumors, 2×10^6 cells were suspended in total of 100 μL PBS/Matrigel (1:1) and implanted orthotopically into the 4th inguinal mammary fat pads at both sides. Animal group size of six or more was estimated to have a high statistical power, based on power calculation (www.biomath.info/pgwer/) and 20 previous studies involving the same xenograft models. When the tumor volume was approximately 50 mm^3, the mice were randomized and then treated intraperitoneally (i.p.) with 100 μl of vehicle or RORγ inhibitors F18/No. 37, 5 mg/kg; GSK805, 5 mg/kg; GNE3500, 5 mg/kg. (in a formulation of 15% Cremophor EL, Calbiochem, 82.5% PBS, and 2.5% DMSO) for five times per week. Tumor growth was monitored by calipers with volume calculated using the equation: π/6 (length×width^2). Mouse body weight during the course of the study was also monitored. At the end of the studies, mice were killed and tumors were dissected and weighed.
# [6] = test system: MCF-7-TamR; assay: Growth and survival of tamoxifen-resistant breast cancer cells; format: cell-based, human; details: MCF-7-TamR, 1 μM of 4(OH)-tamoxifen alone
Structure (SMILES),inhibition of growth and survival [1],inhibition of growth and survival [2],inhibition of growth and survival [3],inhibition of growth and survival [4],orthotopic tumor growth inhibition [5],"growth inhibitory effect, tamoxifen alone [6]"
"O=C(Cc1ccc([N+](=O)[O-])cc1)Nc1ccc(-c2ccc(C(O)(C(F)(F)F)C(F)(F)F)cc2F)cc1 [F17, N-(2′-fluoro-4′-(1,1,1,3,3,3-hexafluoro-2-hydroxypropan-2-yl)-[1,1′-biphenyl]-4-yl)-2-(4-nitrophenyl)acetamide]",strongly inhibited the growth and survival,strongly inhibited the growth and survival,strongly inhibited the growth and survival,,,
"O=C(CCc1ccccc1)Nc1ccc(-c2ccc(C(O)(C(F)(F)F)C(F)(F)F)cc2F)cc1 [F62, N-(2′-fluoro-4′-(1,1,1,3,3,3-hexafluoro-2-hydroxypropan-2-yl)-[1,1′-biphenyl]-4-yl)-3-phenylpropanamide]",strongly inhibited the growth and survival,strongly inhibited the growth and survival,strongly inhibited the growth and survival,,,
"O=C(CCC(F)(F)F)Nc1ccc(-c2ccc(C(O)(C(F)(F)F)C(F)(F)F)cc2F)cc1 [F63, 4,4,4-trifluoro-N-(2′-fluoro-4′-(1,1,1,3,3,3-hexafluoro-2-hydroxypropan-2-yl)-[1,1′-biphenyl]-4-yl)butanamide]",strongly inhibited the growth and survival,strongly inhibited the growth and survival,strongly inhibited the growth and survival,,,
"CCCCCCC(=O)Nc1ccc(-c2ccc(C(O)(C(F)(F)F)C(F)(F)F)cc2F)cc1 [F64, N-(2′-fluoro-4′-(1,1,1,3,3,3-hexafluoro-2-hydroxypropan-2-yl)-[1,1′-biphenyl]-4-yl)heptanamide]",strongly inhibited the growth and survival,strongly inhibited the growth and survival,strongly inhibited the growth and survival,,,
"O=C(CCCC1CCCCC1)Nc1ccc(-c2ccc(C(O)(C(F)(F)F)C(F)(F)F)cc2F)cc1 [F65, 4-cyclohexyl-N-(2′-fluoro-4′-(1,1,1,3,3,3-hexafluoro-2-hydroxypropan-2-yl)-[1,1′-biphenyl]-4-yl)butanamide]",strongly inhibited the growth and survival,strongly inhibited the growth and survival,strongly inhibited the growth and survival,,,
"COC(=O)CCCC(=O)Nc1ccc(-c2ccc(C(O)(C(F)(F)F)C(F)(F)F)cc2F)cc1 [F68, Methyl-5-((2′-fluoro-4′-(1,1,1,3,3,3-hexafluoro-2-hydroxypropan-2-yl)-[1,1′-biphenyl]-4-yl)amino)-5-oxopentanoate]",strongly inhibited the growth and survival,strongly inhibited the growth and survival,strongly inhibited the growth and survival,,,
CC(=O)N1CCN(c2ccc(CN3[C@@H](C)CC[C@H](c4ccccc4)S3(=O)=O)c(F)c2)CC1 [GNE3500],,,,strongly inhibited the growth and survival,,
"CCS(=O)(=O)c1ccc(CC(=O)Nc2cc(Cl)c(-c3ccccc3OC(F)(F)F)c(Cl)c2)cc1 [GSK805, reference compound]",,,,strongly inhibited the growth and survival,Strong tumor growth inhibition,
OC(c1ccc(-c2ccc(CN3CCN(Cc4ccncc4)CC3)cc2)c(F)c1)(C(F)(F)F)C(F)(F)F [SR2211],,,,strongly inhibited the growth and survival,,
"CC/C(=C(\c1ccccc1)c1ccc(OCCN(C)C)cc1)c1ccccc1 [tamoxifen, reference compound]",,,,,,did not show any inhibitory effect
